40 compounds from ChEMBL document CHEMBL1126700, “Synthesis and serotonergic activity of 5-(oxadiazolyl)tryptamines: potent agonists for 5-HT1D receptors” (J Med Chem, 1993) can be followed below.

A short description of series [1]: Partition coefficient (logD7.4). To be noted: octanol/water, pH 7.4.
The target of series [2] is 5-hydroxytryptamine receptor 1D (Sus scrofa, UniProt P79400). The series can be described thus: Displacement of radioligand [3H]5-HT binding to 5-hydroxytryptamine 1D receptor in pig caudate membrane. The class given is cell membranes.
Series [3] deals with Serotonin 2 (5-HT2) receptor (Rattus norvegicus, UniProt P30994+P08909+P14842). The series can be described thus: isplacement of [3H]DOB from rat cortex homogenate 5-hydroxytryptamine 2 receptor.
Series [4] deals with T1, Serotonin 3 (5-HT3) receptor (Rattus norvegicus, UniProt P35563+Q9JJ16).
T1 sequence (P35563 whole entry): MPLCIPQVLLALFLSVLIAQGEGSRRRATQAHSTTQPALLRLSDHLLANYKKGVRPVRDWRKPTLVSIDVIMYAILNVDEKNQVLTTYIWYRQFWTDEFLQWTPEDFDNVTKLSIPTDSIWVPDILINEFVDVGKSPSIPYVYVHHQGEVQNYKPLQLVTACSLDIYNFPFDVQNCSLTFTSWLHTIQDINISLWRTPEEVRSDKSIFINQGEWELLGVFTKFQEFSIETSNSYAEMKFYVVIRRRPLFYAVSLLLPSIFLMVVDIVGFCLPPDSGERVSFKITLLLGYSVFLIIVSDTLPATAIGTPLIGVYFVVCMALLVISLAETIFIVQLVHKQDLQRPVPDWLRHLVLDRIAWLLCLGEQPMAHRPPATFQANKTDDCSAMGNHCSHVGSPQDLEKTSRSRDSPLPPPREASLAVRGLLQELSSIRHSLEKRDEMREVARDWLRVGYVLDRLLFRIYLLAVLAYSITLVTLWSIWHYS
T1 sequence (Q9JJ16 whole entry): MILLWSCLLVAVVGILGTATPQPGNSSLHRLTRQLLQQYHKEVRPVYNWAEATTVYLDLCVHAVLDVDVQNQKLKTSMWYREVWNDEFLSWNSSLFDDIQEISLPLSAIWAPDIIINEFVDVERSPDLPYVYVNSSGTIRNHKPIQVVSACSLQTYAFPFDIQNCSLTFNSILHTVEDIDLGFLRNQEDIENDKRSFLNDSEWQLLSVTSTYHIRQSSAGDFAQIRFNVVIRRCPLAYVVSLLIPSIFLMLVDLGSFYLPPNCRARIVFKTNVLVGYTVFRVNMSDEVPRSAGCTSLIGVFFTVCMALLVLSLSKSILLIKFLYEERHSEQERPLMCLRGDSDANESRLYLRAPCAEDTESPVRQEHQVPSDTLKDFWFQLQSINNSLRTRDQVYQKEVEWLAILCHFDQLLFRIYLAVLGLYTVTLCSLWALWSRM
The series can be described thus: Displacement of [3H]-Q-ICS 205-930 from rat cortex homogenate 5-hydroxytryptamine 3 receptor.

For series [5], the species on record is Oryctolagus cuniculus. The series can be described thus: Serotonergic activity was assessed in vitro on the New Zealand white rabbit saphenous vein preparation. The class given is functional.
The species named for series [6] is Oryctolagus cuniculus. As to the kind of experiment: Relative maximum is the relative efficacy for serotonergic activity on rabbit saphenous vein with respect to 1 uM 5-HT. Type of series: functional.
The species named for series [7] is Oryctolagus cuniculus. The series can be described thus: Relative maximum is the relative efficacy with respect to 1 uM 5-HT. The class given is functional.

Chain of 5-hydroxytryptamine receptor 1D (P79400 whole entry): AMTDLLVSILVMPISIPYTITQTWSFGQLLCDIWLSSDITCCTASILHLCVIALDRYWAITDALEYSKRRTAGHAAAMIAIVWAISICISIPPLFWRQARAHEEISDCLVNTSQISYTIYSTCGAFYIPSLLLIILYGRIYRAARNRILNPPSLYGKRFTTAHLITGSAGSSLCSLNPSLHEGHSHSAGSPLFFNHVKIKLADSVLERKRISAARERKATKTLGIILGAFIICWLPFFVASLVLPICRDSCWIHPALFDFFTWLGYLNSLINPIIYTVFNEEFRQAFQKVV

In series [1], `CNS(=O)(=O)Cc1ccc2[nH]cc(CCN(C)C)c2c1` came in with a logD of -1.17.

With `NCCc1c[nH]c2ccc(C(N)=O)cc12`, the IC50 in series [2] is 0.00398 µM.

`CN(C)CCc1c[nH]c2ccc(-c3nc(Cc4ccc(NS(C)(=O)=O)cc4)no3)cc12` had an IC50 in series [2] of 0.00126 µM. In series [1], the logD was 1.25.

In series [3], `NCCc1c[nH]c2ccc(-c3nc(Cc4ccccc4)no3)cc12` came in with a pIC50 of 5.9. Further, the IC50 in series [4] was above 10 µM; in series [2], 0.00631 µM. In addition, in series [1], the logD is 1.32.

For `CNC(=O)c1ccc(-c2noc(-c3ccc4[nH]cc(CCN)c4c3)n2)cc1`, the IC50 in series [2] is 0.000794 µM.

In series [2], `Cc1noc(CCCc2ccc3[nH]cc(CCN)c3c2)n1` gave an IC50 of 0.00501 µM.

For the compound `CCc1noc(-c2ccc3[nH]cc(CCN)c3c2)n1`, the IC50 in series [2] was 0.0126 µM. The logD in series [1] worked out at 0.13.

In series [3], `CC(=O)Nc1ccc(Cc2noc(-c3ccc4[nH]cc(CCN)c4c3)n2)cc1` showed a pIC50 of 6.4. For the same compound, the IC50 is above 10 µM in series [4] and 0.000501 µM in series [2]. Besides, the EC50 in the series listed under Oryctolagus cuniculus [5] was 0.0126 µM. The same compound came in with a logD in series [1] of 0.48. Further, in the series listed under Oryctolagus cuniculus [6], the Relative maximum is 1.

In series [2], `NCCc1c[nH]c2ccc(-c3nc(N)no3)cc12` had an IC50 of 0.0501 µM. The compound further gave a logD in series [1] of -0.72.

In the case of `NCCc1c[nH]c2ccc(Cc3nc(Cc4ccccc4)no3)cc12`, the IC50 in series [2] was 0.0316 µM. In series [1], this compound came in with a logD of 0.42.

In series [2], `COc1ccccc1Cc1noc(-c2ccc3[nH]cc(CCN)c3c2)n1` had an IC50 of 0.0158 µM. In series [1], this compound came in with a pH-dependent lipophilicity (logD) of 1.38.

In series [2], `NCCc1c[nH]c2ccc(Cc3nc(-c4ccccc4)no3)cc12` showed an IC50 of 0.02 µM.

The compound `CN(C)CCc1c[nH]c2ccc(CCc3nc(N)no3)cc12` yielded a pIC50 in series [3] of 6.7. For the same compound, the figures for the IC50 in series [4] and in series [2] were 6.31 µM and 0.0126 µM, respectively. Further, in the series filed under Oryctolagus cuniculus [5], the EC50 was 0.2 µM.

For the compound `CN(C)CCc1c[nH]c2ccc(-c3nc(Cc4ccccc4)no3)cc12`, the IC50 in series [2] is 0.00631 µM.

On to `CS(=O)(=O)Nc1ccc(Cc2noc(Cc3ccc4[nH]cc(CCN)c4c3)n2)cc1`, for which the IC50 in series [2] is 0.00316 µM. In addition, in series [1], the logD is -0.54.

Take `CN(C)CCc1c[nH]c2ccc(-c3nc(N)no3)cc12`: the IC50 in series [2] is 0.0794 µM. The compound also returned a logD in series [1] of 0.2.

The compound `Cc1noc(-c2ccc3[nH]cc(CCN)c3c2)n1` registered a pIC50 in series [3] of 5.8. Further, the IC50 in series [4] was above 10 µM; in series [2], 0.01 µM. The compound also gave an EC50 in the series listed under Oryctolagus cuniculus [5] of 0.251 µM. This compound came in with a logD in series [1] of -0.37. In the series listed under Oryctolagus cuniculus [6], the Relative maximum worked out at 1.

Turning to `CC(=O)NCc1noc(-c2ccc3[nH]cc(CCN)c3c2)n1`, in series [2], the IC50 was 0.02 µM.

`NCCc1c[nH]c2ccc(Cc3nc(N)no3)cc12`: the pIC50 in series [3] amounted to 6.1. Moreover, the figures for the IC50 in series [4] and in series [2] were above 10 µM and 0.02 µM, respectively. Besides, it took 0.158 µM to reach a half-maximal effect in the series listed under Oryctolagus cuniculus [5] (EC50).

`CN(C)CCc1c[nH]c2ccc(Cc3nc(N)ns3)cc12` registered a pIC50 in series [3] of 6.9. Further, the results for the IC50 in series [4] and in series [2] were 2.4 µM and 0.002 µM, respectively. In addition, the Relative maximum in the series listed under Oryctolagus cuniculus [6] is 1.1.

Take `NCCc1c[nH]c2ccc(CCCc3nc(Cc4ccccc4)no3)cc12`: the IC50 in series [2] was 0.00158 µM.

Compound `CNC(=O)c1ccc(-c2noc(Cc3ccc4[nH]cc(CCN(C)C)c4c3)n2)cc1` gave an IC50 in series [2] of 0.002 µM. The compound also came in with a log distribution coefficient (logD) in series [1] of 1.45.

Consider `NCCc1c[nH]c2ccc(-c3nc(C4CC4)no3)cc12`, for which, in series [3], the pIC50 was determined as 5.6. Besides, the IC50 was above 10 µM in series [4] and 0.00794 µM in series [2]. In series [1], this compound had a logD of 0.6.

In series [2], `CN(C)CCc1c[nH]c2ccc(CCCc3nc(Cc4ccccc4)no3)cc12` showed an IC50 of 0.0126 µM.

As to `CN(C)CCc1c[nH]c2ccc(Cc3nc(-c4ccc(NS(C)(=O)=O)cc4)no3)cc12`, the IC50 in series [2] was 0.01 µM.

`Cc1cnc(-c2ccc3[nH]cc(CCN(C)C)c3c2)o1` showed an IC50 in series [2] of 0.00794 µM.

`NCCc1c[nH]c2ccc(CCc3nc(N)no3)cc12` had an IC50 in series [2] of 0.01 µM. Also, the logD in series [1] was -1.51.

`CC(=O)Nc1ccc(Cc2noc(Cc3ccc4[nH]cc(CCN)c4c3)n2)cc1`: the IC50 in series [2] is 0.00251 µM. Also, the logD in series [1] was -0.36.

The compound `CN(C)CCc1c[nH]c2ccc(Cc3nc(N)no3)cc12` yielded a pIC50 in series [3] of 6.4. Also, the results for the IC50 in series [4] and in series [2] were 2.51 µM and 0.0251 µM, respectively.

Turning to `Cc1noc(Cc2ccc3[nH]cc(CCN(C)C)c3c2)n1`, the pIC50 in series [3] worked out at 5.6. Further, the IC50 in series [4] is 3.98 µM; in series [2], 0.0501 µM.

Compound `COc1ccc(Cc2noc(-c3ccc4[nH]cc(CCN)c4c3)n2)cc1` showed a pIC50 in series [3] of 6. For the same compound, the IC50 in series [4] was above 10 µM; in series [2], 0.000794 µM.

`CNS(=O)(=O)c1ccc(Cc2noc(-c3ccc4[nH]cc(CCN)c4c3)n2)cc1` showed an EC50 in the series filed under Oryctolagus cuniculus [5] of 0.0126 µM. Also, in series [2], the IC50 was 0.000251 µM. The logD in series [1] is 0.25. Moreover, the Relative maximum in the series listed under Oryctolagus cuniculus [6] was 0.9.

The compound `NCCc1c[nH]c2ccc(CCc3nc(Cc4ccccc4)no3)cc12` yielded a pIC50 in series [3] of 6.6. The results for the IC50 in series [4] and in series [2] were above 10 µM and 0.00501 µM, respectively.

As to `Cc1noc(Cc2ccc3[nH]cc(CCN)c3c2)n1`, the pIC50 in series [3] worked out at 5.5. For the same compound, the results for the IC50 in series [4] and in series [2] were above 10 µM and 0.0316 µM, respectively. Also, in series [1], the logD was -1.7.

Take `CN(C)CCc1c[nH]c2ccc(Cc3nc(Cc4ccc(NS(C)(=O)=O)cc4)no3)cc12`: in series [2], the IC50 was 0.0316 µM. The compound further yielded a logD in series [1] of 0.5.

`COc1cccc(Cc2noc(-c3ccc4[nH]cc(CCN)c4c3)n2)c1`: the IC50 in series [2] was 0.00126 µM.

For the compound `NCCc1c[nH]c2ccc(-c3nc(-c4ccccc4)no3)cc12`, in series [2], the IC50 was 0.0794 µM.

Regarding `CN(C)CCc1c[nH]c2ccc(CCc3nc(Cc4ccccc4)no3)cc12`, in series [2], the IC50 was 0.0126 µM.

`CS(=O)(=O)Nc1ccc(Cc2noc(-c3ccc4[nH]cc(CCN)c4c3)n2)cc1` [L-694247] registered a pIC50 in series [3] of 6.5. Also, the figures for the IC50 in series [4] and in series [2] were above 10 µM and 0.000316 µM, respectively. Further, in the series filed under Oryctolagus cuniculus [5], the response was half-maximal at 0.0158 µM (EC50). Further, the logD in series [1] was determined as 0.25. Further, the Relative maximum in the series listed under Oryctolagus cuniculus [6] worked out at 1.

In the series listed under Oryctolagus cuniculus [7], `NCCc1c[nH]c2ccc(O)cc12` [SEROTONIN] showed a Relative maximum of 1. The same compound showed an IC50 in series [2] of 0.01 µM.
